Experiments:
Type in all cases: functional
Saccharomyces cerevisiae [1] = experiment: Zone of inhibition for Saccharomyces cerevisiae IFO 0203 at 0.125 ug/disc by conventional paper disk method
Saccharomyces cerevisiae [2] = experiment: Zone of inhibition for Saccharomyces cerevisiae IFO 0203 at 0.05 ug/disc by conventional paper disk method
Saccharomyces cerevisiae [3] = experiment: Zone of inhibition for Saccharomyces cerevisiae IFO 0203 at 0.25 ug/disc by conventional paper disk method
Saccharomyces cerevisiae [4] = experiment: Zone of inhibition for Saccharomyces cerevisiae IFO 0203 at 0.025 ug/disc by conventional paper disk method

| SMILES | zone of inhibition at 0.125 µg/disc (Saccharomyces cerevisiae [1]) [mm] | zone of inhibition at 0.05 µg/disc (Saccharomyces cerevisiae [2]) [mm] | zone of inhibition at 0.25 µg/disc (Saccharomyces cerevisiae [3]) [mm] | zone of inhibition at 0.025 µg/disc (Saccharomyces cerevisiae [4]) [mm] |
| --- | --- | --- | --- | --- |
| COc1ccnc(C(=O)N[C@H]2COC(=O)[C@H](Cc3ccccc3)[C@@H](OC(=O)C(C)C)[C@H](C)OC2=O)c1OC(=O)CCCCCC(=O)O | 21 | 16 | 24 | 12 |
| COc1ccnc(C(=O)N[C@H]2COC(=O)[C@H](Cc3ccc([N+](=O)[O-])cc3)[C@@H](OC(=O)C(C)C)[C@H](C)OC2=O)c1O | 18 | 15 | 20 | 12 |
| COc1ccnc(C(=O)N[C@H]2COC(=O)[C@H](Cc3ccccc3)[C@@H](OC(=O)C(C)C)[C@H](C)OC2=O)c1OC(C)=O | 14 | 12 | 18 | 10 |
| COc1ccnc(C(=O)N[C@H]2COC(=O)[C@H](Cc3ccc(NC=O)cc3)[C@@H](OC(=O)C(C)C)[C@H](C)OC2=O)c1O | 0 | 0 | 0 | 0 |
| COc1ccnc(C(=O)N[C@H]2COC(=O)[C@H](Cc3ccc(N)cc3)[C@@H](OC(=O)C(C)C)[C@H](C)OC2=O)c1O | 8 | 0 | 10 | 0 |
| CCOC(=O)COc1c(OC)ccnc1C(=O)N[C@H]1COC(=O)[C@H](Cc2ccccc2)[C@@H](OC(=O)C(C)C)[C@H](C)OC1=O | 0 | 0 | 0 | 0 |
| CCCC[C@H]1C(=O)O[C@H](C)[C@H](NC(=O)c2cccc(NC=O)c2O)C(=O)O[C@@H](C)[C@@H]1OC(=O)CC(C)C [ANTIMYCIN A3] | 19 | 18 | 26 | 16 |
| COc1ccnc(C(=O)N[C@H]2COC(=O)[C@H](Cc3ccc(N(C)C)cc3)[C@@H](OC(=O)C(C)C)[C@H](C)OC2=O)c1O | 15 | 11 | 19 | 0 |
| CC(C)C(=O)O[C@H]1[C@H](C)OC(=O)[C@@H](NC(=O)c2cccc(NC=O)c2O)COC(=O)[C@@H]1Cc1ccccc1 | 16 | 12 | 17 | 8 |
| CC(C)C(=O)O[C@H]1[C@H](C)OC(=O)[C@@H](NC(=O)c2cccc(N(C)C)c2O)COC(=O)[C@@H]1Cc1ccccc1 | 12 | 8 | 14 | 8 |
| CC(C)C(=O)O[C@H]1[C@H](C)OC(=O)[C@@H](NC(=O)c2nc3ccccc3nc2O)COC(=O)[C@@H]1Cc1ccccc1 | 20 | 18 | 24 | 14 |
| COc1ccnc(C(=O)N[C@H]2COC(=O)[C@H](Cc3ccccc3)[C@@H](OC(=O)C(C)C)[C@H](C)OC2=O)c1O | 26 | 22 | 26 | 19 |
| CC(C)C(=O)O[C@H]1[C@H](C)OC(=O)[C@@H](NC(=O)c2ccccc2O)COC(=O)[C@@H]1Cc1ccccc1 | 11 | 8 | 12 | 8 |
| COc1ccc(O)c(C(=O)N[C@H]2COC(=O)[C@H](Cc3ccccc3)[C@@H](OC(=O)C(C)C)[C@H](C)OC2=O)n1 | 24 | 19 | 27 | 16 |
| COc1ccnc(C(=O)N[C@H]2COC(=O)[C@H](Cc3ccccc3)[C@@H](OC(=O)C(C)C)[C@H](C)OC2=O)c1OC(=O)CCCCCC(=O)Oc1ccccc1 | 15 | 10 | 18 | 8 |
| COc1ccnc(C(=O)N[C@H]2COC(=O)[C@H](Cc3ccccc3)[C@@H](OC(=O)C(C)C)[C@H](C)OC2=O)c1OC | 0 | 0 | 0 | 0 |
| CC(C)C(=O)O[C@H]1[C@H](C)OC(=O)[C@@H](NC(=O)c2cccnc2O)COC(=O)[C@@H]1Cc1ccccc1 | 16 | 12 | 17 | 0 |
